These molecules were tested on CAL-120 (assay: normalised viability (% of control), CellTiter-Blue; higher = more viable cells (about 100 = DMSO control)). Conditions: 1 nM; incubation time: 72 h.
In short: (§1)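 Compound dissolved in 5 µl medium was pre-loaded into 384-well plates, and breast cancer cell lines in 20 µl suspension were seeded on top and incubated 72 h. After adding 2.5 µl CellTiter-Blue reagent for 2 h at 37 °C, fluorescence was read at 560/590 nm. Plates were normalised to vehicle (100) and a positive kill control (0), with Z'-factor quality control. Each value is normalised viability at a single listed concentration from the series.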
CCN(CCCOc1ccc2c(Nc3cc(CC(=O)Nc4cccc(F)c4)[nH]n3)ncnc2c1)CCOP(=O)(O)O [Barasertib] showed a normalised viability of 111%. With CO[C@H]1/C=C\C=C(/C)C(=O)NC2=CC(=O)C(NCCN(C)C)=C(C[C@@H](C)C[C@H](OC)[C@H](O)[C@@H](C)/C=C(\C)[C@@H]1OC(N)=O)C2=O [Alvespimycin] the normalised viability was 108%. In the case of NC(=O)Nc1cc(-c2cccc(F)c2)sc1C(=O)N[C@H]1CCCNC1 [AZD 7762], the normalised viability is reported as 118%.

Same assay, conditions: 10 nM; incubation time: 72 h
Molecule O=C1CCC(N2C(=O)c3ccccc3C2=O)C(=O)N1 (stereo unspecified) [Thalidomide] has a normalised viability of 111%. Molecule C=C(c1ccc(C(=O)O)cc1)c1cc2c(cc1C)C(C)(C)CCC2(C)C [Bexarotene] has a normalised viability of 101%. Molecule CCC1(c2ccc(N)cc2)CCC(=O)NC1=O (stereo unspecified) [Aminoglutethimide] has a normalised viability of 111%. In the case of Clc1ccc(Nc2nnc(Cc3ccncc3)c3ccccc23)cc1 [Vatalanib], the normalised viability is reported as 82.2%. NCC(=O)CCC(=O)O [Aminolevulinic acid] showed a normalised viability of 89.6%.

Same assay, conditions: 100 nM; incubation time: 72 h
In the case of CCN(CCCOc1ccc2c(Nc3cc(CC(=O)Nc4cccc(F)c4)[nH]n3)ncnc2c1)CCOP(=O)(O)O [Barasertib], the normalised viability is reported as 61.9%. CO[C@H]1/C=C\C=C(/C)C(=O)NC2=CC(=O)C(NCCN(C)C)=C(C[C@@H](C)C[C@H](OC)[C@H](O)[C@@H](C)/C=C(\C)[C@@H]1OC(N)=O)C2=O [Alvespimycin] showed a normalised viability of 26.7%. Molecule NC(=O)Nc1cc(-c2cccc(F)c2)sc1C(=O)N[C@H]1CCCNC1 [AZD 7762] has a normalised viability of 101%.

Same assay, conditions: 1000 nM; incubation time: 72 h
Work on O=C1CCC(N2C(=O)c3ccccc3C2=O)C(=O)N1 (stereo unspecified) [Thalidomide] yielded a normalised viability of 106%. Molecule C=C(c1ccc(C(=O)O)cc1)c1cc2c(cc1C)C(C)(C)CCC2(C)C [Bexarotene] has a normalised viability of 108%. CCC1(c2ccc(N)cc2)CCC(=O)NC1=O (stereo unspecified) [Aminoglutethimide] gave a normalised viability of 116%. Molecule Clc1ccc(Nc2nnc(Cc3ccncc3)c3ccccc23)cc1 [Vatalanib] has a normalised viability of 89.7%. Work on NCC(=O)CCC(=O)O [Aminolevulinic acid] yielded a normalised viability of 103%. CCN(CCCOc1ccc2c(Nc3cc(CC(=O)Nc4cccc(F)c4)[nH]n3)ncnc2c1)CCOP(=O)(O)O [Barasertib] gave a normalised viability of 51.7%. CO[C@H]1/C=C\C=C(/C)C(=O)NC2=CC(=O)C(NCCN(C)C)=C(C[C@@H](C)C[C@H](OC)[C@H](O)[C@@H](C)/C=C(\C)[C@@H]1OC(N)=O)C2=O [Alvespimycin] was tested, and the normalised viability was 17.4%. NC(=O)Nc1cc(-c2cccc(F)c2)sc1C(=O)N[C@H]1CCCNC1 [AZD 7762] was tested, and the normalised viability was 26.5%.

Same assay, conditions: 10000 nM; incubation time: 72 h
O=C1CCC(N2C(=O)c3ccccc3C2=O)C(=O)N1 (stereo unspecified) [Thalidomide] showed a normalised viability of 96.8%. With C=C(c1ccc(C(=O)O)cc1)c1cc2c(cc1C)C(C)(C)CCC2(C)C [Bexarotene] the normalised viability was 106%. For CCC1(c2ccc(N)cc2)CCC(=O)NC1=O (stereo unspecified) [Aminoglutethimide], the normalised viability was 108%. In the case of Clc1ccc(Nc2nnc(Cc3ccncc3)c3ccccc23)cc1 [Vatalanib], the normalised viability is reported as 82.6%. With NCC(=O)CCC(=O)O [Aminolevulinic acid] the normalised viability was 104%.

These molecules were tested on HCC1599 in the same assay as above. Conditions: 1 nM; incubation time: 72 h.
In short: as §1
CCN(CCCOc1ccc2c(Nc3cc(CC(=O)Nc4cccc(F)c4)[nH]n3)ncnc2c1)CCOP(=O)(O)O [Barasertib] gave a normalised viability of 79.4%. In the case of CO[C@H]1/C=C\C=C(/C)C(=O)NC2=CC(=O)C(NCCN(C)C)=C(C[C@@H](C)C[C@H](OC)[C@H](O)[C@@H](C)/C=C(\C)[C@@H]1OC(N)=O)C2=O [Alvespimycin], the normalised viability is reported as 72.9%. NC(=O)Nc1cc(-c2cccc(F)c2)sc1C(=O)N[C@H]1CCCNC1 [AZD 7762] showed a normalised viability of 93.2%.

Same assay, conditions: 10 nM; incubation time: 72 h
O=C1CCC(N2C(=O)c3ccccc3C2=O)C(=O)N1 (stereo unspecified) [Thalidomide] showed a normalised viability of 101%. C=C(c1ccc(C(=O)O)cc1)c1cc2c(cc1C)C(C)(C)CCC2(C)C [Bexarotene] gave a normalised viability of 81.2%. Work on CCC1(c2ccc(N)cc2)CCC(=O)NC1=O (stereo unspecified) [Aminoglutethimide] yielded a normalised viability of 90.8%. Work on Clc1ccc(Nc2nnc(Cc3ccncc3)c3ccccc23)cc1 [Vatalanib] yielded a normalised viability of 116%. NCC(=O)CCC(=O)O [Aminolevulinic acid] gave a normalised viability of 84.3%.

Same assay, conditions: 100 nM; incubation time: 72 h
Work on CCN(CCCOc1ccc2c(Nc3cc(CC(=O)Nc4cccc(F)c4)[nH]n3)ncnc2c1)CCOP(=O)(O)O [Barasertib] yielded a normalised viability of 81.6%. CO[C@H]1/C=C\C=C(/C)C(=O)NC2=CC(=O)C(NCCN(C)C)=C(C[C@@H](C)C[C@H](OC)[C@H](O)[C@@H](C)/C=C(\C)[C@@H]1OC(N)=O)C2=O [Alvespimycin] gave a normalised viability of 43%. NC(=O)Nc1cc(-c2cccc(F)c2)sc1C(=O)N[C@H]1CCCNC1 [AZD 7762] gave a normalised viability of 73.1%.

Same assay, conditions: 1000 nM; incubation time: 72 h
Work on O=C1CCC(N2C(=O)c3ccccc3C2=O)C(=O)N1 (stereo unspecified) [Thalidomide] yielded a normalised viability of 86%. For C=C(c1ccc(C(=O)O)cc1)c1cc2c(cc1C)C(C)(C)CCC2(C)C [Bexarotene], the normalised viability was 72.2%. CCC1(c2ccc(N)cc2)CCC(=O)NC1=O (stereo unspecified) [Aminoglutethimide] gave a normalised viability of 92.7%. Molecule Clc1ccc(Nc2nnc(Cc3ccncc3)c3ccccc23)cc1 [Vatalanib] has a normalised viability of 115%. NCC(=O)CCC(=O)O [Aminolevulinic acid] showed a normalised viability of 86.5%. Work on CCN(CCCOc1ccc2c(Nc3cc(CC(=O)Nc4cccc(F)c4)[nH]n3)ncnc2c1)CCOP(=O)(O)O [Barasertib] yielded a normalised viability of 94.2%. With CO[C@H]1/C=C\C=C(/C)C(=O)NC2=CC(=O)C(NCCN(C)C)=C(C[C@@H](C)C[C@H](OC)[C@H](O)[C@@H](C)/C=C(\C)[C@@H]1OC(N)=O)C2=O [Alvespimycin] the normalised viability was 31.3%. With NC(=O)Nc1cc(-c2cccc(F)c2)sc1C(=O)N[C@H]1CCCNC1 [AZD 7762] the normalised viability was 53.9%.

Same assay, conditions: 10000 nM; incubation time: 72 h
Work on O=C1CCC(N2C(=O)c3ccccc3C2=O)C(=O)N1 (stereo unspecified) [Thalidomide] yielded a normalised viability of 102%. In the case of C=C(c1ccc(C(=O)O)cc1)c1cc2c(cc1C)C(C)(C)CCC2(C)C [Bexarotene], the normalised viability is reported as 82.1%. CCC1(c2ccc(N)cc2)CCC(=O)NC1=O (stereo unspecified) [Aminoglutethimide] showed a normalised viability of 95.3%.

— the supplement of paper PMC4862054
